{
  "source": "patent US11185531B2",
  "about": "“Arginine methyltransferase inhibitors and uses thereof” (Epizyme, Inc., priority 2013, dated 2021)",
  "data": [
    {"molecular_target": "T1, human PRMT3 (Homo sapiens, UniProt O60678)", "T1 construct": "GST-tagged PRMT3; made in house; host or cells: E. coli BL21(DE3) Gold", "T1 sequence (O60678 with tags, fused parts or gaps)": "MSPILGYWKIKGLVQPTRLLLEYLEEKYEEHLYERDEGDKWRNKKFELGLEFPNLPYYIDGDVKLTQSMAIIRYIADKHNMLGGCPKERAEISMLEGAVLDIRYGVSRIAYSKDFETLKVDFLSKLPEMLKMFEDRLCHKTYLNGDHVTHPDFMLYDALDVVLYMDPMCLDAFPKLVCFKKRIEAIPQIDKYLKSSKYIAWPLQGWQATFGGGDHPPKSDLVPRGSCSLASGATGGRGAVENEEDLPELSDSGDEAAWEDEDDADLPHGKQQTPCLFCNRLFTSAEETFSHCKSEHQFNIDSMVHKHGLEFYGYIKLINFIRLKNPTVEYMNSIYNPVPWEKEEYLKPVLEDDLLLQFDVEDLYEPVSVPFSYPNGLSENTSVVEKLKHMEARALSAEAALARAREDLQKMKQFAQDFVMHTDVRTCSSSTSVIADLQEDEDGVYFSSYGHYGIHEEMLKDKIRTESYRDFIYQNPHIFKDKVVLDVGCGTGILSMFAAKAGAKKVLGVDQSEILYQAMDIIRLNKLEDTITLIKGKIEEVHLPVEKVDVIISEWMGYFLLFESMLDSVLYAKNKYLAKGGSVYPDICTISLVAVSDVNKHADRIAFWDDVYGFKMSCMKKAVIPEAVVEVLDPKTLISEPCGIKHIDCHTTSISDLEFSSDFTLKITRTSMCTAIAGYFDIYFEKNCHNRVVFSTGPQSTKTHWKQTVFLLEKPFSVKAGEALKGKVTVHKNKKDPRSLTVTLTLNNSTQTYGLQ", "assay": "PRMT3 Biochemical Assay (3H-SAM Flashplate, peptide substrate)", "details": "30 min preincubation", "source_text": "Peptide containing the classic RMT substrate motif was synthesized with an N-terminal linker-affinity tag motif and a C-terminal amide cap by 21st Century Biochemicals. The peptide was purified by high-performance liquid chromatography (HPLC) to greater than 95% purity and confirmed by liquid chromatography mass spectrometry (LC-MS). The sequence was Biot-Ahx-[…]-amide (SEQ ID NO:11).\nFull-length human PRMT3 (NM_005788.3) isoform 1 transcript clone was amplified from an HEK 293 cDNA library and subcloned into pGEX-KG (GE Life Sciences). The resulting construct encodes an N-terminal GST tag and a thrombin cleavage sequence\nGST-tagged PRMT3 was eluted with 50 mM Tris, 2 mM glutathione, pH 7.1 and 50 mM Tris, 20 mM glutathione, pH 7.1. Pooled fractions were dialysed in 20 mM Tris, 50 mM NaCl, 5% glycerol, 1 mM EDTA, 1 mM DTT, pH7.5 (Buffer B) and applied to a Q Sepharose Fast Flow column. GST-tagged PRMT3 was eluted by 500 mM NaCl in buffer B. Pooled fractions were dialyzed in 25 mM phosphate buffer, 100 mM NaCl, 5% glycerol, 2 mM DTT, pH 6.8 (Buffer C) and loaded on to a ceramic hydroxyapatite column. GST-tagged PRMT3 eluted with 25-400 mM phosphate in buffer C. Protein was concentrated and buffer was exchanged to 20 mM Tris, 150 mM NaCl, 5% glycerol, 5 mM β-mercaptoethanol, pH7.8 by ultrafiltration. The purity of recovered protein was 70%.\nGeneral Procedure for PRMT3 Enzyme Assays on Peptide Substrates.\nThe assays were all performed in a buffer consisting of 20 mM Bicine (pH=7.6), 1 mM TCEP, 0.005% BSG, and 0.002% Tween 20, prepared on the day of use. Compounds in 100% DMSO (1 ul) were spotted into a polypropylene 384-well V-bottom plates (Greiner) using a Platemate Plus outfitted with a 384-channel head (Thermo Scientific). DMSO (1 ul) was added to Columns 11, 12, 23, 24, rows A-H for the maximum signal control and 1 ul of SAH, a known product and inhibitor of PRMT3, was added to columns 11, 12, 23, 24, rows I-P for the minimum signal control. A cocktail (40 ul) containing the PRMT3 enzyme was added by Multidrop Combi (Thermo-Fisher). The compounds were allowed to incubate with PRMT3 for 30 min at room temperature, then a cocktail (10 ul) containing SAM and peptide was added to initiate the reaction (final volume=51 ul). The final concentrations of the components were as follows: PRMT3 was 0.5 nM, ^3H-SAM was 100 nM, non-radiolabeled SAM was 1.8 uM, peptide was 330 nM, SAH in the minimum signal control wells was 1 mM, and the DMSO concentration was 2%. The assays were stopped by the addition of potassium chloride (10 ul) to a final concentration of 100 mM. 50 ul of the reaction in the 384-well polypropylene plate was then transferred to a 384-well Flashplate and the biotinylated peptides were allowed to bind to the streptavidin surface for at least 1 hour before being washed once with 0.1% Tween20 in a Biotek ELx405 plate washer. The plates were then read in a PerkinElmer TopCount plate reader to measure the quantity of ^3H-labeled peptide bound to the Flashplate surface, measured as disintegrations per minute (dpm) or alternatively, referred to as counts per minute (cpm).\nWhere dpm=disintegrations per minute, cmpd=signal in assay well, and min and max are the respective minimum and maximum signal controls.\nWhere top and bottom are the normally allowed to float, but may be fixed at 100 or 0 respectively in a 3-parameter fit. The Hill Coefficient normally allowed to float but may also be fixed at 1 in a 3-parameter fit. Y is the % inhibition and X is the compound concentration.", "units": {"IC50": "µM"}, "values": [
      {"smiles": "CNCCN(C)Cc1c[nH]nc1C#Cc1cccc(OC)c1", "note": "[Compound 1]", "IC50": "3.01 to 10"},
      {"smiles": "CNCCN(C)Cc1c[nH]nc1C#Cc1ccc(C(C)(C)C)cc1", "note": "[Compound 2]", "IC50": "1.01 to 3"},
      {"smiles": "CNCCN(C)Cc1c[nH]nc1C#Cc1ccccc1", "note": "[Compound 3]", "IC50": "3.01 to 10"},
      {"smiles": "CNCCN(C)Cc1c[nH]nc1/C=C/c1ccc(-c2ccccc2)cc1", "note": "[Compound 5]", "IC50": "1.01 to 3"},
      {"smiles": "CNCCN(C)Cc1c[nH]nc1/C=C/c1ccc(C(F)(F)F)cc1", "note": "[Compound 6]", "IC50": "3.01 to 10"},
      {"smiles": "CNCCN(C)Cc1c[nH]nc1/C=C/c1ccc(OC)cc1", "note": "[Compound 7]", "IC50": "3.01 to 10"},
      {"smiles": "Cc1ccc(/C=C/c2n[nH]cc2CN(C)CCN)cc1", "note": "[Compound 8]", "IC50": "3.01 to 10"},
      {"smiles": "COc1cc(/C=C/c2n[nH]cc2CN(C)CCN)cc(OC)c1", "note": "[Compound 11]", "IC50": "1.01 to 3"},
      {"smiles": "CN(CCN)Cc1c[nH]nc1/C=C/c1ccc(F)cc1F", "note": "[Compound 13]", "IC50": "3.01 to 10"},
      {"smiles": "CN(CCN)Cc1c[nH]nc1/C=C/c1cc(C(F)(F)F)cc(C(F)(F)F)c1", "note": "[Compound 14]", "IC50": "3.01 to 10"},
      {"smiles": "CN(CCN)Cc1c[nH]nc1/C=C/c1cc(F)cc(F)c1", "note": "[Compound 15]", "IC50": "1.01 to 3"},
      {"smiles": "CN(CCN)Cc1c[nH]nc1/C=C/c1cccc(C(F)(F)F)c1", "note": "[Compound 16]", "IC50": "3.01 to 10"},
      {"smiles": "COc1cccc(/C=C/c2n[nH]cc2CN(C)CCN)c1", "note": "[Compound 17]", "IC50": "1.01 to 3"},
      {"smiles": "CN(CCN)Cc1c[nH]nc1/C=C/c1ccc(C(F)(F)F)cc1", "note": "[Compound 18]", "IC50": "1.01 to 3"},
      {"smiles": "COC/C=C/c1n[nH]cc1CN(C)CCN", "note": "[Compound 19]", "IC50": "3.01 to 10"},
      {"smiles": "CN(CCN)Cc1c[nH]nc1/C=C/c1cccc(F)c1", "note": "[Compound 20]", "IC50": "1.01 to 3"},
      {"smiles": "CN(CCN)Cc1c[nH]nc1C1CCCCC1", "note": "[Compound 22]", "IC50": "3.01 to 10"},
      {"smiles": "CN(CCN)Cc1c[nH]nc1CCc1ccc(F)cc1", "note": "[Compound 23, N^1-((3-(4-fluorophenethyl)-1H-pyrazol-4-yl)methyl)-N^1-methylethane-1,2-diamine]", "IC50": "3.01 to 10"}
    ]},
    {"tested_on": "mono-methyl arginine in RKO cells", "assay": "RKO Methylation Assay, In Cell Western for mono-methyl arginine", "assay_type": "cell-based", "details": "Homo sapiens, 72 hours, percent activation of mono-methyl arginine signal", "source_text": "RKO adherent cells were purchased from ATCC (American Type Culture Collection), Manassas, Va., USA. DMEM/Glutamax medium, penicillin-streptomycin, heat inactivated fetal bovine serum, 0.05% trypsin and D-PBS were purchased from Life Technologies, Grand Island, N.Y., USA. Odyssey blocking buffer, 800 CW goat anti-rabbit IgG (H+L) antibody, and Licor Odyssey infrared scanner were purchased from Licor Biosciences, Lincoln, Nebr., USA. Mono-methyl arginine antibody was purchased from Cell Signaling Technology, Danvers, Mass., USA. Methanol was purchased from VWR, Franklin, Mass., USA. 10% Tween 20 was purchased from KPL, Inc., Gaithersburg, Md., USA. DRAQ5 was purchased from Biostatus Limited, Leicestershire, UK.\nRKO adherent cells were maintained in growth medium (DMEM/Glutamax medium supplemented with 10% v/v heat inactivated fetal bovine serum and 100 units/mL penicillin-streptomycin) and cultured at 37° C. under 5% CO2.\nCell Treatment, in Cell Western (ICW) for Detection of Mono-Methyl Arginine and DNA Content.\nRKO cells were seeded in assay medium at a concentration of 20,000 cells per mL to a poly-D-lysine coated 384 well culture plate (BD Biosciences 356697) with 50 μL per well. Compound (100 nL) from a 96-well source plate was added directly to 384 well cell plate. Plates were incubated at 37° C., 5% CO2 for 72 hours. After three days of incubation, plates were brought to room temperature outside of the incubator for ten minutes and blotted on paper towels to remove cell media. 50 μL of ice cold 100% methanol was added directly to each well and incubated for 30 min at room temperature. After 30 min, plates were transferred to a Biotek EL406 plate washer and washed 2 times with 100 μL per well of wash buffer (IX PBS). Next 60 μL per well of Odyssey blocking buffer (Odyssey Buffer with 0.1% Tween 20 (v/v)) were added to each plate and incubated 1 hour at room temperature. Blocking buffer was removed and 20 μL per well of primary antibody was added (mono-methyl arginine diluted 1:200 in Odyssey buffer with 0.1% Tween 20 (v/v)) and plates were incubated overnight (16 hours) at 4° C. Plates were washed 5 times with 100 μL per well of wash buffer. Next 20 μL per well of secondary antibody was added (1:200 800 CW goat anti-rabbit IgG (H+L) antibody, 1:1000 DRAQ5 (Biostatus limited) in Odyssey buffer with 0.1% Tween 20 (v/v)) and incubated for 1 hour at room temperature. The plates were washed 5 times with 100 μL per well wash buffer then 2 times with 100 μL per well of water. Plates were allowed to dry at room temperature then imaged on the Licor Odyssey machine which measures integrated intensity at 700 nm and 800 nm wavelengths. Both 700 and 800 channels were scanned.\nFirst, the ratio for each well was determined by:\nEach plate included fourteen control wells of DMSO only treatment (minimum activation) as well as fourteen control wells for maximum activation treated with 20 μM of a reference compound. The average of the ratio values for each control type was calculated and used to determine the percent activation for each test well in the plate. Reference compound was serially diluted three-fold in DMSO for a total of nine test concentrations, beginning at 20 μM. Percent activation was determined and EC30 curves were generated using triplicate wells per concentration of compound.", "units": {"EC30": "µM"}, "values": [
      {"smiles": "CN(CCN)Cc1c[nH]nc1C1=CCOCC1", "note": "[Compound 10]", "EC30": "> 12"},
      {"smiles": "CC(C)c1n[nH]cc1CN(C)CCN", "note": "[Compound 21]", "EC30": "> 12"},
      {"smiles": "CN(CCN)Cc1c[nH]nc1C1CCCCC1", "note": "[Compound 22]", "EC30": "< 3"},
      {"smiles": "CN(CCN)Cc1c[nH]nc1CCc1ccc(F)cc1", "note": "[Compound 23, N^1-((3-(4-fluorophenethyl)-1H-pyrazol-4-yl)methyl)-N^1-methylethane-1,2-diamine]", "EC30": "< 3"},
      {"smiles": "CN(CCN)Cc1c[nH]nc1/C=C/Cc1ccccc1", "note": "[Compound 24]", "EC30": "< 3"},
      {"smiles": "CN(CCN)Cc1c[nH]nc1C1=CCCC1", "note": "[Compound 25]", "EC30": "3.01 to 12"},
      {"smiles": "CN(CCN)Cc1c[nH]nc1C1CCC1", "note": "[Compound 26]", "EC30": "> 12"},
      {"smiles": "CCCc1n[nH]cc1CN(C)CCN", "note": "[Compound 29]", "EC30": "> 12"},
      {"smiles": "Cc1n[nH]cc1CN(C)CCN", "note": "[Compound 30]", "EC30": "> 12"},
      {"smiles": "CN(CCN)Cc1c[nH]nc1C1CCCC1", "note": "[Compound 31]", "EC30": "> 12"},
      {"smiles": "CNCCN(C)Cc1c[nH]nc1C1CCN(C(=O)Cc2ccccc2)CC1", "note": "[Compound 32]", "EC30": "< 3"},
      {"smiles": "CN(CCN)Cc1n[nH]cc1C1CCCCC1", "note": "[Compound 33]", "EC30": "3.01 to 12"},
      {"smiles": "CNCCN(C)Cc1c[nH]nc1C1CCN(C(=O)C(C)C)CC1", "note": "[Compound 34]", "EC30": "< 3"},
      {"smiles": "CC1CCC(c2c[nH]nc2CN(C)CCN)CC1", "note": "(stereo not drawn) [Compound 35]", "EC30": "< 3"},
      {"smiles": "CN(CCN)Cc1n[nH]cc1C1CCC(C)(C)CC1", "note": "[Compound 36]", "EC30": "< 3"},
      {"smiles": "CC1CCC(c2n[nH]cc2CN(C)CCN)CC1", "note": "(stereo not drawn) [Compound 37, N^1-methyl-N^1-((3-(4-methylcyclohexyl)-1H-pyrazol-4-yl)methyl)ethane-1,2-diamine]", "EC30": "< 3"},
      {"smiles": "CN(CCN)Cc1c[nH]nc1C1CCC(C)(C)CC1", "note": "[Compound 38, N^1-((3-(4,4-dimethylcyclohexyl)-1H-pyrazol-4-yl)methyl)-N^1-methylethane-1,2-diamine]", "EC30": "< 3"},
      {"smiles": "CNCCN(C)Cc1c[nH]nc1C1CCN(CC(C)C)CC1", "note": "[Compound 39, N^1-((3-(1-isobutylpiperidin-4-yl)-1H-pyrazol-4-yl)methyl)-N^1,N^2-dimethylethane-1,2-diamine]", "EC30": "< 3"},
      {"smiles": "CNCCN(C)Cc1c[nH]nc1C1CCN(C)CC1", "note": "[Compound 41]", "EC30": "> 12"},
      {"smiles": "CNCCN(C)Cc1c[nH]nc1C1CCNCC1", "note": "[Compound 42]", "EC30": "> 12"},
      {"smiles": "CN(CCN)Cc1n[nH]cc1C1CCC(N2CCOCC2)CC1", "note": "(stereo not drawn) [Compound 44, N^1-methyl-N^1-((4-(4-morpholinocyclohexyl)-1H-pyrazol-3-yl)methyl)ethane-1,2-diamine]", "EC30": "3.01 to 12"}
    ]}
  ]
}
